From US20230257372A1 (CHONG KUN DANG PHARMACEUTICAL CORP., priority 2020, published 2023)
Like-named read-outs stand apart in the source and are kept apart here.

Columns and labels:
[1] = target: T1, human recombinant HDAC6 (Homo sapiens, UniProt Q9UBN7); assay: HDAC6 enzyme activity inhibition (HDAC Fluorimetric Drug Discovery Kit); assay type: biochemical
T1 construct: purchased Calbiochem Inc. 382180
T1 sequence (Q9UBN7 1-1215): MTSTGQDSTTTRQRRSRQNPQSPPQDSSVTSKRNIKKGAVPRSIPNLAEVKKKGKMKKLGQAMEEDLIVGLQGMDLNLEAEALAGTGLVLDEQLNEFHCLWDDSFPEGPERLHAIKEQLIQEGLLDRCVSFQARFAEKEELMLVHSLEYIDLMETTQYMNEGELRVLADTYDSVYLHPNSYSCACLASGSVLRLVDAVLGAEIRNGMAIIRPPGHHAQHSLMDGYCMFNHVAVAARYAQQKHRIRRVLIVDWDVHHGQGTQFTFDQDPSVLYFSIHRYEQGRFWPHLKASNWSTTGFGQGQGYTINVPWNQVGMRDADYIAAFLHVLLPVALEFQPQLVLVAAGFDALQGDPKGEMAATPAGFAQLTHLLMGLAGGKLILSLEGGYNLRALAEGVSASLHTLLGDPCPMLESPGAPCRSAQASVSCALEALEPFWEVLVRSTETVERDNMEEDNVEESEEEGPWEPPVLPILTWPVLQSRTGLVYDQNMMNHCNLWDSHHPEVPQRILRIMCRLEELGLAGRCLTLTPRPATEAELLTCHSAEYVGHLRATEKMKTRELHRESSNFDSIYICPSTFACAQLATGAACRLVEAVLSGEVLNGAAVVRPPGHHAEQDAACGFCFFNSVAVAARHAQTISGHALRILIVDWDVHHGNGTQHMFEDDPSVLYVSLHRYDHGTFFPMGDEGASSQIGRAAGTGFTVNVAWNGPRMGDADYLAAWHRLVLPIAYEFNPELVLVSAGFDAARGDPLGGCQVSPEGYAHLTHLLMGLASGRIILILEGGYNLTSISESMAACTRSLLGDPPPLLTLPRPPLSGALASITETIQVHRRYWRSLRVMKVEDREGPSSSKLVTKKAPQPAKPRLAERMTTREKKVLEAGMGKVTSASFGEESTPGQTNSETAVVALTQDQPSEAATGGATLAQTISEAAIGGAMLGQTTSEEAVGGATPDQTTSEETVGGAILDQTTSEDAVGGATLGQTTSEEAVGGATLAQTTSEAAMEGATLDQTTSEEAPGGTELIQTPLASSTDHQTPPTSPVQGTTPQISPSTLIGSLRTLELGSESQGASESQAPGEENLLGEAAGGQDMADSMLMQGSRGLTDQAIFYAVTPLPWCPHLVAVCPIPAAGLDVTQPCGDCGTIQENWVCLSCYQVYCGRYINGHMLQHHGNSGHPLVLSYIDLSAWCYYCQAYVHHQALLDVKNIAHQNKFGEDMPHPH
In short: (§1)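 Fluorimetric deacetylase read-out. 5-fold compound dilutions; […] enzyme, 10 μM substrate; 30° C, 60 min; developer 30 min.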

[2] = test system: hippocampal neurons from a Sprague-Dawley (SD) rat fetus; assay: Effect of HDAC6-specific inhibitor on axonal transport of mitochondria in amyloid-beta treated neurons; assay type: cell-based; settings: transport velocity of mitochondria in neuronal axon after normalization; vehicle = 100%, amyloid beta treatment group = 0%; compound treatment for three hours
Method: On the 17th to 18th days (E17-18) of insemination, the hippocampal neurons from a Sprague-Dawley (SD) rat fetus were cultured in a culture container for imaging, which had been coated with extracellular matrix, and were treated with amyloid-beta protein fragments at a concentration of […]. In 24 hours later, the neurons were treated with the compound on the 8th day of in vitro culture. In three hours later, the resulting neurons were treated with MitoTracker Red CMXRos (Life Technologies, NY, USA) for last five minutes to stain mitochondria. An image on the axonal transport of stained neuron mitochondria was taken with a confocal microscope (Leica SP8; Leica microsystems, UK) at an interval of one second for one minute to measure a transport velocity of each mitochondria per second with an IMARIS analysis program (BITPLANE, Zurich, Switzerland).
In result, after setting a section, in which the group treated with amyloid-beta had shown a significant decrease in the transport velocity of mitochondria compared to a vehicle, it was confirmed for 1,3,4-oxadiazole triazol derivative compounds of the present invention, stereoisomers thereof or pharmaceutically acceptable salts thereof that the vehicles is represented as 100%, the amyloid beta treatment group is represented as 0%, a velocity distribution of the compound after normalization is represented as *, 0%˜50%; **, 50%˜100%; ***, >100%.

[3] = target: T2, human recombinant HDAC1 (Homo sapiens, UniProt Q13547); assay: HDAC1 enzyme activity inhibition (HDAC Fluorimetric Drug Discovery Kit); assay type: biochemical; settings: read-out: HDAC1
T2 construct: purchased Enzo Life Science, Inc. BML-SE456
T2 sequence (Q13547 whole entry): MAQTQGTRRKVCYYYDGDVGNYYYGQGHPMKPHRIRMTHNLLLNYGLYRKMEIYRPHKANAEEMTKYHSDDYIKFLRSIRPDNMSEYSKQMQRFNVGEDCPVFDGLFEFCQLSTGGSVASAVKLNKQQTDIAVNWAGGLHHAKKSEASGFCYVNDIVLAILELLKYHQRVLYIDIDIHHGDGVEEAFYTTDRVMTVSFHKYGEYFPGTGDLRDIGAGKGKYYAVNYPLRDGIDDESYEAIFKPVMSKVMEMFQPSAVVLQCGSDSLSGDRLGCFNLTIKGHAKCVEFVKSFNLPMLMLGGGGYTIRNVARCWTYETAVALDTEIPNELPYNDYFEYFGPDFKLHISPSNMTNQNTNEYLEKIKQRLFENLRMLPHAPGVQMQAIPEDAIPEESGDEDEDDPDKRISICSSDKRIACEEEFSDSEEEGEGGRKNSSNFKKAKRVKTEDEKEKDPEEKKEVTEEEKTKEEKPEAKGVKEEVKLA
In short: as §1

[4] = human recombinant HDAC6, IC50 calculated with GraphPad Prism
[5] = human recombinant HDAC1, IC50 calculated with GraphPad Prism
[6] = human recombinant HDAC6, same protocol as HDAC1
[7] = human recombinant HDAC1, Fluor de Lys substrate, 30° C. 60 minutes

CCn1ccc2ccc(-c3cn(Cc4ccc(-c5nnc(C(F)F)o5)cn4)nn3)cc21 [Compound 4136, 2-(difluoromethyl)-5-(6-((4-(1-ethyl-1H-indol-6-yl)-1H-1,2,3-triazol-1-yl)methyl)pyridin-3-yl)-1,3,4-oxadiazole]
HDAC6 selectivity (fold) ([1]; HDAC1 IC50 / HDAC6 IC50): 2873 fold | IC50 [1, 4]: 17.4 nM | Velocity distribution (%) [2]: ** (**, 50%˜100%) | IC50 [3, 5]: > 50000 nM

CC(C)(C)C(=O)Nc1cccc(-c2cn(Cc3ccc(-c4nnc(C(F)F)o4)cn3)nn2)c1 [Compound 3825, N-(3-(1-((5-(5-(difluoromethyl)-1,3,4-oxadiazol-2-yl)pyridin-2-yl)methyl)-1H-1,2,3-triazol-4-yl)phenyl)pivalamide]
HDAC6 selectivity (fold) ([1]; HDAC1 IC50 / HDAC6 IC50): 4464 fold | IC50 [1, 4]: 11.2 nM | Velocity distribution (%) [2]: *** (***, >100%) | IC50 [3, 5]: > 50000 nM

CN1CCN(Cc2c[nH]c3cc(-c4cn(Cc5ccc(-c6nnc(C(F)F)o6)cn5)nn4)ccc23)CC1 [Compound 3986, 2-(difluoromethyl)-5-(6-((4-(3-((4-methylpiperazin-1-yl)methyl)-1H-indol-6-yl)-1H-1,2,3-triazol-1-yl)methyl)pyridin-3-yl)-1,3,4-oxadiazole]
HDAC6 selectivity (fold) ([1]; HDAC1 IC50 / HDAC6 IC50): 6756 fold | IC50 [1, 4]: 7.4 nM | Velocity distribution (%) [2]: *** (***, >100%) | IC50 [3, 5]: > 50000 nM

FC(F)c1nnc(-c2ccc(Cn3cc(-c4ccc5cc[nH]c5c4)cn3)nc2)o1 [Compound 4208]
HDAC6 selectivity (fold) ([1]; HDAC1 IC50 / HDAC6 IC50): 1479 fold | IC50 [1, 4]: 33.8 nM | Velocity distribution (%) [2]: ** (**, 50%˜100%) | IC50 [3, 5]: > 50000 nM

O=C(Nc1cccc(-c2cn(Cc3ccc(-c4nnc(C(F)F)o4)cc3F)nn2)c1)C(F)(F)F [Compound 3777, N-(3-(1-(4-(5-(difluoromethyl)-1,3,4-oxadiazol-2-yl)-2-fluorobenzyl)-1H-1,2,3-triazol-4-yl)phenyl)-2,2,2-trifluoroacetamide]
HDAC6 selectivity (fold) ([1]; HDAC1 IC50 / HDAC6 IC50): 2222 fold | IC50 [1, 4]: 22.5 nM | Velocity distribution (%) [2]: * (*, 0%˜50%) | IC50 [3, 5]: > 50000 nM

FC(F)c1nnc(-c2ccc(Cn3cc(-c4ccc5occc5c4)nn3)nc2)o1 [Compound 4073, 2-(6-((4-(benzofuran-5-yl)-1H-1,2,3-triazol-1-yl)methyl)pyridin-3-yl)-5-(difluoromethyl)-1,3,4-oxadiazole]
HDAC6 selectivity (fold) ([1]; HDAC1 IC50 / HDAC6 IC50): 822 fold | IC50 [1, 4]: 60.8 nM | Velocity distribution (%) [2]: ** (**, 50%˜100%) | IC50 [3, 5]: > 50000 nM

FC(F)c1nnc(-c2ccc(Cn3cc(-c4cccc(C5CCN(C6COC6)CC5)c4)nn3)nc2)o1 [Compound 4013, 2-(difluoromethyl)-5-(6-((4-(3-(1-(oxetan-3-yl)piperidin-4-yl)phenyl)-1H-1,2,3-triazol-1-yl)methyl)pyridin-3-yl)-1,3,4-oxadiazole]
HDAC6 selectivity (fold) ([1]; HDAC1 IC50 / HDAC6 IC50): 2183 fold | IC50 [1, 4]: 22.9 nM | Velocity distribution (%) [2]: ** (**, 50%˜100%) | IC50 [3, 5]: > 50000 nM

CN1CCN(c2cccc(-c3cn(Cc4ccc(-c5nnc(C(F)F)o5)cc4F)nn3)c2)CC1 [Compound 4337, 2-(difluoromethyl)-5-(3-fluoro-4-((4-(3-(4-methylpiperazin-1-yl)phenyl)-1H-1,2,3-triazol-1-yl)methyl)phenyl)-1,3,4-oxadiazole]
HDAC6 selectivity (fold) ([1]; HDAC1 IC50 / HDAC6 IC50): 2092 fold | IC50 [1, 4]: 23.9 nM | Velocity distribution (%) [2]: *** (***, >100%) | IC50 [3, 5]: > 50000 nM

Fc1cc(-c2nnc(C(F)F)o2)cnc1Cn1cc(-c2ccc(CN3CCCC3)cc2)nn1 [Compound 18058, 2-(difluoromethyl)-5-(5-fluoro-6-((4-(4-(pyrrolidin-1-ylmethyl)phenyl)-1H-1,2,3-triazol-1-yl)methyl)pyridin-3-yl)-1,3,4-oxadiazole]
HDAC6 selectivity (fold) ([1]; HDAC6 over HDAC1): 2272 fold | IC50 [1, 6]: 22 nM | Velocity distribution (%) [2]: *** (***, >100%) | IC50 [3, 7]: > 50000 nM

Fc1cc(-c2nnc(C(F)F)o2)ccc1Cn1cc(-c2ccc(CN3CCC3)cn2)nn1 [Compound 17532, 2-(4-((4-(5-(azetidin-1-yl-methyl)pyridin-2-yl)-1H-1,2,3-triazol-1-yl)methyl)-3-fluorophenyl)5-(difluoromethyl)-1,3,4-oxadiazole]
HDAC6 selectivity (fold) ([1]; HDAC6 over HDAC1): 2100 fold | IC50 [1, 6]: 23.8 nM | Velocity distribution (%) [2]: *** (***, >100%) | IC50 [3, 7]: > 50000 nM

FC(F)c1nnc(-c2ccc(Cn3cc(-c4cccc5[nH]ccc45)nn3)nc2)o1 [Compound 3839, 2-(6-((4-(1H-indol-4-yl)-1H-1,2,3-triazol-1-yl)methyl)pyridin-3-yl)-5-(difluoromethyl)-1,3,4-oxadiazole]
HDAC6 selectivity (fold) ([1]; HDAC1 IC50 / HDAC6 IC50): 6756 fold | IC50 [1, 4]: 7.4 nM | Velocity distribution (%) [2]: * (*, 0%˜50%) | IC50 [3, 5]: > 50000 nM

CCC(=O)N1CCN(c2cccc(-c3cn(Cc4ccc(-c5nnc(C(F)F)o5)cn4)nn3)c2)CC1 [Compound 3991]
HDAC6 selectivity (fold) ([1]; HDAC1 IC50 / HDAC6 IC50): 1773 fold | IC50 [1, 4]: 28.2 nM | Velocity distribution (%) [2]: ** (**, 50%˜100%) | IC50 [3, 5]: > 50000 nM

FC(F)c1nnc(-c2ccc(Cn3cc(-c4cncc(Br)c4)nn3)nc2)o1 [Compound 4182, 2-(6-((4-(5-bromopyridin-3-yl)-1H-1,2,3-triazol-1-yl)methyl)pyridin-3-yl)-5-(difluoromethyl)-1,3,4-oxadiazole]
HDAC6 selectivity (fold) ([1]; HDAC1 IC50 / HDAC6 IC50): 2252 fold | IC50 [1, 4]: 22.2 nM | Velocity distribution (%) [2]: ** (**, 50%˜100%) | IC50 [3, 5]: > 50000 nM

Fc1cc(-c2nnc(C(F)F)o2)ccc1Cn1cc(-c2cccc3[nH]ccc23)nn1 [Compound 4079, 2-(4-((4-(1H-indol-4-yl)-1H-1,2,3-triazol-1-yl)methyl)-3-fluorophenyl)-5-(difluoromethyl)-1,3,4-oxadiazole]
HDAC6 selectivity (fold) ([1]; HDAC1 IC50 / HDAC6 IC50): 1992 fold | IC50 [1, 4]: 25.1 nM | Velocity distribution (%) [2]: ** (**, 50%˜100%) | IC50 [3, 5]: > 50000 nM

Fc1cc(-c2nnc(C(F)F)o2)ccc1Cn1cc(-c2ccc3c(c2)CN(C2CCC2)CC3)nn1 [Compound 4366, 2-(4-((4-(2-cyclobutyl-1,2,3,4-tetrahydroisoquinolin-7-yl)-1H-1,2,3-triazol-1-yl)methyl)-3-fluorophenyl)-5-(difluoromethyl)-1,3,4-oxadiazole]
HDAC6 selectivity (fold) ([1]; HDAC1 IC50 / HDAC6 IC50): 1358 fold | IC50 [1, 4]: 36.8 nM | Velocity distribution (%) [2]: *** (***, >100%) | IC50 [3, 5]: > 50000 nM
